Measured values taken from paper PMC3522636, “4F Decreases IRF5 Expression and Activation in Hearts of Tight Skin Mice” (PLoS ONE, 2012).
Entries after “also recorded” stand apart in the source; their conditions may differ.

Legend:
[1] = biological target: biotin-labeled 4F (biotin-labeled …-NH2); test: pull-down; B-4F added to precleared endothelial cell cytosolic fractions spiked with recombinant IRF5, 3 h at 4°C; SA agarose beads overnight at 4°C; immunoblot for IRF5
[2] = system: Human umbilical vein endothelial cells; test: Cellular uptake of B-4F in endothelial cells; assay type: cell-based; conditions: vs unlabeled 4F, confocal; for increase of fluorescence intensity in EC: 4 hours, fluorescein-streptavidin
Protocol: Human umbilical vein endothelial cells (EC; Lonza, Walkersville, MD) were incubated in EGM complete media containing 4F or B-4F (10 and 50 µg/ml) for 4 hours. The EC cultures were washed with PBS, fixed in PBS containing 1% paraformaldehyde, and permeabilized with PBS containing 0.5% Triton-X. The permeabilized sections were incubated with fluorescein-conjugated streptavidin (1 µg/ml) for 30 minutes followed by 3 PBS washes. The fixed and fluorescently labeled slides were mounted in aqueous mounting media and sections inspected and analyzed by confocal microscopy.

IRF5 = biological target: T1, IRF5 (Homo sapiens, UniProt Q13568); test: B-4F pulldown assay from EC cytosolic fractions spiked with recombinant IRF5; assay type: binding; conditions: immunoblot
T1 construct: purchased GenScript USA Inc
T1 sequence (Q13568 1-498): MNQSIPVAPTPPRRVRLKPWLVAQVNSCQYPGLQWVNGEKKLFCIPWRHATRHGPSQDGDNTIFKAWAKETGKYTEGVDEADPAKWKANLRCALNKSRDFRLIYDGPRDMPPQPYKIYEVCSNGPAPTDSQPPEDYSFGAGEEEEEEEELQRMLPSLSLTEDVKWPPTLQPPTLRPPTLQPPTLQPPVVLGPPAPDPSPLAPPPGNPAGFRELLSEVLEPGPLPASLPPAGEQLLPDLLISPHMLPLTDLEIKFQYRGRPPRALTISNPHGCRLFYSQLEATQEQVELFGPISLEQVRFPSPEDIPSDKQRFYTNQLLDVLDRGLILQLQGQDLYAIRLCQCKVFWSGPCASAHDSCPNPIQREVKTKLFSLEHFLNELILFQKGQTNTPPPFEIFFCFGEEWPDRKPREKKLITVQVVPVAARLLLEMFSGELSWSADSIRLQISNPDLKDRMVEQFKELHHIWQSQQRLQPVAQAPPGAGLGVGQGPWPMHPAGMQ
Protocol: B-4F Pulldown Assays: To determine whether 4F interacts with IRF5 in the presence of cystosol proteins, we performed 4F pulldown assays on EC cytosolic fractions spiked with recombinant IRF5. Briefly, cytosolic EC fractions were precleared with SA agarose beads (Cat#15942-050, Invitrogen) for 30 minutes at 4°C. IRF5 interactions were enhanced by adding recombinant IRF5 (2% wt/vol, Genscript USA Inc.) to the endothelial cytosolic fractions. 4F and B-4F were added to the cytosolic fractions and incubated for 3 hours at 4°C. SA agarose beads were added and the samples mixed end-over-end overnight at 4°C. The following day the SA agarose beads were isolated by centrifugation. The proteins associated with B-4F were released from the beads with Laemmli buffer and separated by SDS-PAGE (4–15%) as above. IRF5 levels in the pulldown samples were determined by autoradiography of immunoblots as above.

Substance | fold IRF5 in the B-4F precipitate over control lane 1 [1] [fold] | increase of fluorescence intensity in EC ([2]; B-4F 10 µg/ml) | increase of fluorescence intensity in EC ([2]; B-4F 50 µg/ml, p≤0.05) [fold] | uptake into EC (in words) ([2]; B-4F 10 and 50 µg/ml, 4 hours (method), 3 hours (Figure 6)) | association with IRF5 in presence of EC cytosolic proteins (in words) (IRF5; 3 hours at 4°C, SA agarose beads overnight at 4°C) | IRF5 bound to the B-4F precipitate relative to control (IRF5; EC lysates with recombinant IRF5 (10 µg/mL), SA-agarose pulldown, lane 2 vs control lane 1) [fold]
recombinant IRF5 (from UniProt Q13568 1-498) (natural protein) | 2.5 |  |  |  |  | 
biotin-labeled DWFKAFYDKVAEKFKEAF-NH2 [B-4F, biotin-labeled 4F, synthesized with one more cycle with FMOC-Lys(biotinyl-ε-aminocaproyl)-OH] |  | approximately 30% | 3.6 | greater fluorescence in EC cultures incubated with 10 and 50 µg/ml of B-4F than in EC cultures incubated with equal concentrations of unlabeled 4F; also recorded: B-4F content is increased in ECs incubated with 10 and 50 µg/ml | associates with IRF5 even in the presence of EC cytosolic proteins | 2.5
